The numbers were not newly measured in PMC10410440, “Preclinical PK investigation of a novel IDO1/TDO dual inhibitor—SHR9146 in mouse plasma and tissues by LC-MS/MS” (Frontiers in Oncology, 2023), which cites them from elsewhere.

On the set-up of this data set: method as in PMID 31221619. As to conditions: phase III trial; epacadostat combined with a PD-1 checkpoint inhibitor compared with pembrolizumab alone; cited from earlier work.

`NS(=O)(=O)NCCNc1nonc1C(=NO)Nc1ccc(F)c(Br)c1` [epacadostat]: the progression-free survival rate entry is on record as “no significant improvement”.
